Results reported in paper PMC7402526, “An in vitro quantitative systems pharmacology approach for deconvolving mechanisms of drug-induced, multilineage cytopenias” (PLoS Computational Biology, 2020).
pEC50: −log10 of the molar value.

How the values were obtained:
monocytes (monocyte-lin) = assay: MLTA, Mono: concentration-response and QSP model fit; format: cell-based, human; conditions: Homo sapiens, Monocyte, 144 h
Protocol: (§1) A custom optimized cytokine cocktail was developed using commercially available cytokines (Peprotech, New Jersey) to facilitate simultaneous multi-lineage differentiation and self-renewal of freeze-thawed primary human bone marrow-derived CD34+ cells in SFEM II media (cells and media from StemCell Technologies, Vancouver). Cultures were carried out in ultra-low attachment 96-well plates (Corning, New York) with test article added on day 0 and cultured at 37°C, 85% relative humidity, and 5% CO2 for six days before interrogating drug impact via 17-parameter flow cytometry.
(§2) The flow cytometry panel used to define hematopoietic subsets was composed of CD34-PECy7, CD90-PECY5, CD38-AF488, CD371-PE, CD45Ra-BV421, CD14-BV605, CD42b-AF647, CD10-PEDazzle594, CD235a-PerCPCy5.5 (BioLegend, California), CD15-BUV395, CD41a-APCH7, CD71-BV786 (BD Biosciences, California), and DAPI for dead cell exclusion (ThermoFisher, California). In short, Day 6 cells were harvested, FcR-blocked (FcR binding inhibitor, ThermoFisher), surface-stained, then analyzed in a buffer containing TruCount Control Beads using a BD LSR Fortessa SORP fitted with a high-throughput sampler (BD Biosciences, California). Data was analyzed in Diva 6.0.2 and exported to CSV where after all cell data was transformed to cell per mL then normalized on a per-donor basis to untreated control wells to determine drug impact.
(§3) Donor material was collected and cultured as described above. The number of replicate donor samples per drug ranged from 2–7 and varied per drug (S1 Table). Drug treatment was added at time 0 and cells were maintained in culture for 6 days. Concentrations tested for each drug compound are contained in S1 Table. Concentrations were selected to span a range that is clinically useful. Following treatment, cell populations were measured using flow cytometry. We extracted cell counts from flow cytometry data, normalized to bead counts, and corrected for well volume.
(§4) Each well was normalized to the average of six vehicle control wells. For drugs that were tested across multiple runs of the assay, vehicle-normalized donor data were pooled, and we used the average of these pooled data for further modeling. Normalized data used as model inputs are included in S1 Table.
(§5) We implemented drug effects using an Emax model for the drug’s effect on each cell type. The 13 maximum effect parameters (EmaxT,C) are unitless and can vary between 0 and 2 and where a subscript, C, represents one of the previously described 13 cell types. We adapted a traditional Emax model using the equations below. We interpreted EmaxT values less than or equal to one as anti-proliferative, and EmaxT values greater than one as indicating a cell-killing mechanism in addition to anti-proliferation. The relationships for these effects are included in the model using the following equations. Eq 2 describes the drug anti-proliferative effect in the net proliferation rate for a given cell type. Eq 3 describes the cell-killing EmaxCK effect.
(§6) Towards the estimation of mechanistic parameters, we considered different formulations: (a) weighting the objective value to prioritize fitting dead cells and (b) using regularization methodology to encourage a parsimonious solution. We assessed the contributions of these formulations using mean-squared error and goodness of fit plots for drugs with known mechanisms. […] Further, we used L1 regularization to penalize parameters […] to help identify a parsimonious set of parameters to explain drug effects.

[1] = test system: lymphocyte progenitors (LymP); assay: MLTA, LymP: concentration-response and QSP model fit; format: cell-based, human; conditions: Homo sapiens, Lymphocyte, 144 h
Protocol: as §1, §2, §3, §4, §5, §6

[2] = test system: granulocyte-macrophage progenitor (GMPs); assay: MLTA, GMPs: concentration-response and QSP model fit; format: cell-based, human; conditions: Homo sapiens, 144 h
Protocol: as §1, §2, §3, §4, §5, §6

[3] = test system: total dead cells (totalDeadCells); assay: MLTA, total dead cells concentration-response; format: cell-based; conditions: Homo sapiens, 144 h, 6 days, normalized to vehicle control, read-out: total_dead normalized cell count
Protocol: as §1, §2, §3, §4

granulocytes (Gran-lin) = assay: MLTA, Gran: concentration-response and QSP model fit; format: cell-based, human; conditions: Homo sapiens, 144 h
Protocol: as §1, §2, §3, §4, §5, §6

MK cells (MK-lin) = assay: MLTA, MK: concentration-response and QSP model fit; format: cell-based, human; conditions: Homo sapiens, 144 h
Protocol: as §1, §2, §3, §4, §5, §6

[4] = test system: monocyte progenitors (monocyte prog); assay: MLTA, MonoP: concentration-response and QSP model fit; format: cell-based, human; conditions: Homo sapiens, Monocyte, 144 h
Protocol: as §1, §2, §3, §4, §5, §6

B cells (B-lin) = assay: MLTA, B-lin: concentration-response and QSP model fit; format: cell-based, human; conditions: Homo sapiens, B-cell, 144 h
Protocol: as §1, §2, §3, §4, §5, §6

[5] = QSP model fit of 6-day MLTA data

## CCN1CCN(Cc2ccc(Nc3ncc(F)c(-c4cc(F)c5nc(C)n(C(C)C)c5c4)n3)nc2)CC1 [abemaciclib]
Monocytes (monocyte-lin); [5]
  pEC50: 7.34
Monocytes (monocyte-lin); dose 0.2 nM, 6 days, normalized to vehicle control, read-out: Mon normalized cell count
  activity at 0.0002 µM: 92.9%
Monocytes (monocyte-lin); dose 1 nM, 6 days, normalized to vehicle control, read-out: Mon normalized cell count
  activity at 0.001 µM: 109%
Monocytes (monocyte-lin); dose 5 nM, 6 days, normalized to vehicle control, read-out: Mon normalized cell count
  activity at 0.005 µM: 87%
Monocytes (monocyte-lin); dose 25 nM, 6 days, normalized to vehicle control, read-out: Mon normalized cell count
  activity at 0.025 µM: 41.8%
Monocytes (monocyte-lin); dose 100 nM, 6 days, normalized to vehicle control, read-out: Mon normalized cell count
  activity at 0.1 µM: 10.9%
Monocytes (monocyte-lin); dose 500 nM, 6 days, normalized to vehicle control, read-out: Mon normalized cell count
  activity at 0.5 µM: 3.74%
Monocytes (monocyte-lin); dose 2500 nM, 6 days, normalized to vehicle control, read-out: Mon normalized cell count
  activity at 2.5 µM: 0.588%
Monocytes (monocyte-lin); parameter from QSP model fitting, read-out: Emax_drug_Mono
  Emax: 23.1%
[1]; dose 0.2 nM, 6 days, normalized to vehicle control, read-out: LymP normalized cell count
  activity at 0.0002 µM: 93.5%
[1]; dose 1 nM, 6 days, normalized to vehicle control, read-out: LymP normalized cell count
  activity at 0.001 µM: 99.4%
[1]; dose 5 nM, 6 days, normalized to vehicle control, read-out: LymP normalized cell count
  activity at 0.005 µM: 92.9%
[1]; dose 25 nM, 6 days, normalized to vehicle control, read-out: LymP normalized cell count
  activity at 0.025 µM: 38.9%
[1]; dose 100 nM, 6 days, normalized to vehicle control, read-out: LymP normalized cell count
  activity at 0.1 µM: 22.1%
[1]; dose 500 nM, 6 days, normalized to vehicle control, read-out: LymP normalized cell count
  activity at 0.5 µM: 22.3%
[1]; dose 2500 nM, 6 days, normalized to vehicle control, read-out: LymP normalized cell count
  activity at 2.5 µM: 7.46%
[1]; parameter from QSP model fitting, read-out: Emax_drug_LymP
  Emax: 0.16%
[2]; [5]
  pEC50: 7.43
[2]; dose 0.2 nM, 6 days, normalized to vehicle control, read-out: GMPs normalized cell count
  activity at 0.0002 µM: 89.7%
[2]; dose 1 nM, 6 days, normalized to vehicle control, read-out: GMPs normalized cell count
  activity at 0.001 µM: 108%
[2]; dose 5 nM, 6 days, normalized to vehicle control, read-out: GMPs normalized cell count
  activity at 0.005 µM: 93.6%
[2]; dose 25 nM, 6 days, normalized to vehicle control, read-out: GMPs normalized cell count
  activity at 0.025 µM: 50.4%
[2]; dose 100 nM, 6 days, normalized to vehicle control, read-out: GMPs normalized cell count
  activity at 0.1 µM: 29.2%
[2]; dose 500 nM, 6 days, normalized to vehicle control, read-out: GMPs normalized cell count
  activity at 0.5 µM: 5.84%
[2]; dose 2500 nM, 6 days, normalized to vehicle control, read-out: GMPs normalized cell count
  activity at 2.5 µM: 0.643%
[3]; dose 0.2 nM
  activity at 0.0002 µM: 92%
[3]; dose 1 nM
  activity at 0.001 µM: 97.6%
[3]; dose 5 nM
  activity at 0.005 µM: 87.1%
[3]; dose 25 nM
  activity at 0.025 µM: 46.8%
[3]; dose 100 nM
  activity at 0.1 µM: 30.9%
[3]; dose 500 nM
  activity at 0.5 µM: 22%
[3]; dose 2500 nM
  activity at 2.5 µM: 34%
Granulocytes (Gran-lin); dose 0.2 nM, 6 days, normalized to vehicle control, read-out: Gran normalized cell count
  activity at 0.0002 µM: 101%
Granulocytes (Gran-lin); dose 1 nM, 6 days, normalized to vehicle control, read-out: Gran normalized cell count
  activity at 0.001 µM: 107%
Granulocytes (Gran-lin); dose 5 nM, 6 days, normalized to vehicle control, read-out: Gran normalized cell count
  activity at 0.005 µM: 91.3%
Granulocytes (Gran-lin); dose 25 nM, 6 days, normalized to vehicle control, read-out: Gran normalized cell count
  activity at 0.025 µM: 34.6%
Granulocytes (Gran-lin); dose 100 nM, 6 days, normalized to vehicle control, read-out: Gran normalized cell count
  activity at 0.1 µM: 9.12%
Granulocytes (Gran-lin); dose 500 nM, 6 days, normalized to vehicle control, read-out: Gran normalized cell count
  activity at 0.5 µM: 1.99%
Granulocytes (Gran-lin); dose 2500 nM, 6 days, normalized to vehicle control, read-out: Gran normalized cell count
  activity at 2.5 µM: 0.0882%
Granulocytes (Gran-lin); parameter from QSP model fitting, read-out: Emax_drug_Gran
  Emax: 0.16%
MK cells (MK-lin); [5]
  pEC50: 6.31
MK cells (MK-lin); dose 0.2 nM, 6 days, normalized to vehicle control, read-out: MK normalized cell count
  activity at 0.0002 µM: 108%
MK cells (MK-lin); dose 1 nM, 6 days, normalized to vehicle control, read-out: MK normalized cell count
  activity at 0.001 µM: 99.5%
MK cells (MK-lin); dose 5 nM, 6 days, normalized to vehicle control, read-out: MK normalized cell count
  activity at 0.005 µM: 101%
MK cells (MK-lin); dose 25 nM, 6 days, normalized to vehicle control, read-out: MK normalized cell count
  activity at 0.025 µM: 84.2%
MK cells (MK-lin); dose 100 nM, 6 days, normalized to vehicle control, read-out: MK normalized cell count
  activity at 0.1 µM: 44.1%
MK cells (MK-lin); dose 500 nM, 6 days, normalized to vehicle control, read-out: MK normalized cell count
  activity at 0.5 µM: 8.35%
MK cells (MK-lin); dose 2500 nM, 6 days, normalized to vehicle control, read-out: MK normalized cell count
  activity at 2.5 µM: 0.557%
MK cells (MK-lin); parameter from QSP model fitting, read-out: Emax_drug_MK
  Emax: 6.8%
[4]; dose 0.2 nM, 6 days, normalized to vehicle control, read-out: MonoPs normalized cell count
  activity at 0.0002 µM: 98.7%
[4]; dose 1 nM, 6 days, normalized to vehicle control, read-out: MonoPs normalized cell count
  activity at 0.001 µM: 99.4%
[4]; dose 5 nM, 6 days, normalized to vehicle control, read-out: MonoPs normalized cell count
  activity at 0.005 µM: 80.6%
[4]; dose 25 nM, 6 days, normalized to vehicle control, read-out: MonoPs normalized cell count
  activity at 0.025 µM: 27.5%
[4]; dose 100 nM, 6 days, normalized to vehicle control, read-out: MonoPs normalized cell count
  activity at 0.1 µM: 8.19%
[4]; dose 500 nM, 6 days, normalized to vehicle control, read-out: MonoPs normalized cell count
  activity at 0.5 µM: 1.58%
[4]; dose 2500 nM, 6 days, normalized to vehicle control, read-out: MonoPs normalized cell count
  activity at 2.5 µM: 0.0911%
[4]; parameter from QSP model fitting, read-out: Emax_drug_MonoP
  Emax: 0.17%
B cells (B-lin); [5]
  pEC50: 7.16
B cells (B-lin); dose 0.2 nM, 6 days, normalized to vehicle control, read-out: B-lin normalized cell count
  activity at 0.0002 µM: 83.9%
B cells (B-lin); dose 1 nM, 6 days, normalized to vehicle control, read-out: B-lin normalized cell count
  activity at 0.001 µM: 104%
B cells (B-lin); dose 5 nM, 6 days, normalized to vehicle control, read-out: B-lin normalized cell count
  activity at 0.005 µM: 83.9%
B cells (B-lin); dose 25 nM, 6 days, normalized to vehicle control, read-out: B-lin normalized cell count
  activity at 0.025 µM: 50.8%
B cells (B-lin); dose 100 nM, 6 days, normalized to vehicle control, read-out: B-lin normalized cell count
  activity at 0.1 µM: 23.5%
B cells (B-lin); dose 500 nM, 6 days, normalized to vehicle control, read-out: B-lin normalized cell count
  activity at 0.5 µM: 4.07%
B cells (B-lin); dose 2500 nM, 6 days, normalized to vehicle control, read-out: B-lin normalized cell count
  activity at 2.5 µM: 0.0736%
B cells (B-lin); parameter from QSP model fitting, read-out: Emax_drug_B
  Emax: 64.9%
